What is called CC50 is the concentration that lowers cell viability or growth by half.

Calls of active or inactive are those of the source. How the calls were made is not given here.

The assay deals with S1PR3 cell line viability, luminescence counterscreen. Put plainly: cell viability loss, dose response – luminescence, cytotoxicity control for S1PR3 antagonist project, late-stage follow-up (AID 743436).
In the case of `O=C(NC(c1cccc(Cl)c1)c1nc(-c2ccccc2)no1)c1cccc(Cl)c1` (stereo unspecified), the CC50 was > 28.2 µM (inactive). With `O=C(NC(c1ccc(Br)cc1)c1nc(-c2ccccc2)no1)c1ccc(Cl)c(Cl)c1` (stereo unspecified) the figure was > 28.2 µM (inactive). Take `Clc1ccc(CNC(c2ccccc2)c2nc(-c3ccccc3)no2)cc1Cl` (stereo unspecified): the CC50 was > 28.2 µM (inactive). With `O=C(Cc1ccc(Cl)c(Cl)c1)NC(c1ccccc1)c1nc(-c2ccccc2)no1` (stereo unspecified) the figure was > 28.2 µM (inactive); with `O=C(Nc1ccc(Cl)c(Cl)c1)NC(c1ccccc1)c1nc(-c2ccccc2)no1` (stereo unspecified), 7.7 µM. With `O=C(NC(c1ccc(Cl)cc1)c1nc(-c2cccc(Cl)c2)no1)c1cccc(Cl)c1` (stereo unspecified), the CC50 is > 28.2 µM (inactive).

With `O=C(NC(c1ccc(Cl)c(Cl)c1)c1nc(-c2ccccc2)no1)c1cccc(Cl)c1` (stereo unspecified), the CC50 is > 28.2 µM (inactive).

Take `O=C(NC(c1ccccc1)c1nc(-c2ccccc2)no1)c1ccc(Cl)c(Cl)c1` (stereo unspecified): the CC50 was > 28.2 µM (inactive). Take `O=C(NC(c1ccc(Cl)c(Cl)c1)c1nc(-c2ccccc2)no1)c1ccc(Cl)c(Cl)c1` (stereo unspecified): the CC50 is > 28.2 µM (inactive). For the molecule `O=C(NC(Cc1ccccc1)c1nc(-c2ccccc2)no1)c1cccc(Cl)c1` (stereo unspecified), the CC50 was > 28.2 µM (inactive). Consider `O=C(NC(c1ccc(Cl)c(Cl)c1)c1nc(-c2ccccc2)no1)c1ccccc1` (stereo unspecified), for which the CC50 was 24.7 µM (inactive). With `O=C(NC(c1ccccc1)c1nc(-c2ccccc2)no1)c1ccc(Cl)cc1` (stereo unspecified) the figure was > 28.2 µM (inactive). `O=C(NC(c1ccc(Cl)cc1)c1nc(-c2ccccc2)no1)c1cccc(Br)c1` (stereo unspecified): the CC50 was > 28.2 µM (inactive). The result for `Cc1ccc(C(=O)NC(c2ccccc2)c2nc(-c3ccccc3)no2)cc1` (stereo unspecified) reads > 28.2 µM (inactive). With `O=C(NC(c1nc(-c2ccccc2)no1)C1CCCCC1)c1ccc(Cl)c(Cl)c1` (stereo unspecified) the figure was > 28.2 µM (inactive). Turning to `O=C(NC(c1ccc(Cl)cc1)c1nc(-c2ccccn2)no1)c1cccc(Cl)c1` (stereo unspecified), the CC50 is > 28.2 µM (inactive). The result for `O=C(NC(c1ccc(Cl)cc1)c1nc(-c2ccccc2)no1)c1ccc(Cl)c(Cl)c1` (stereo unspecified) reads > 28.2 µM (inactive). For `O=C(NC(c1ccccc1)c1nc(-c2ccccc2)no1)c1cccc(Cl)n1` (stereo unspecified), the CC50 is > 28.2 µM (inactive).

Consider `O=C(NC(c1nc(-c2ccccc2)no1)C1CCOCC1)c1ccc(Cl)c(Cl)c1` (stereo unspecified), for which the CC50 was > 28.2 µM (inactive).

As for `N#Cc1ccc(C(=O)NC(c2ccc(Cl)c(Cl)c2)c2nc(-c3ccccc3)no2)cc1` (stereo unspecified), the CC50 was > 28.2 µM (inactive).

As to `Cc1ccc(C(NC(=O)c2cccc(Cl)c2)c2nc(-c3ccccc3)no2)cc1` (stereo unspecified), the CC50 was > 28.2 µM (inactive). Regarding `COc1ccc(C(=O)NC(c2ccccc2)c2nc(-c3ccccc3)no2)cc1` (stereo unspecified), the CC50 is > 28.2 µM (inactive). The result for `O=C(NC(c1ccccc1)c1nc(-c2ccccc2)no1)c1cccc(Br)c1` (stereo unspecified) reads > 28.2 µM (inactive). Take `O=C(c1cccc(Cl)c1)N(CCO)C(c1ccc(Cl)c(Cl)c1)c1nc(-c2ccccc2)no1` (stereo unspecified): the CC50 is > 28.2 µM (inactive). For `O=C(NC(c1cccc(Cl)c1)c1nc(-c2ccccc2)no1)c1ccc(Cl)c(Cl)c1` (stereo unspecified), the CC50 is > 28.2 µM (inactive). As to `O=C(NC(c1ccccc1)c1nc(-c2ccccc2)no1)c1cccc(Cl)c1` (stereo unspecified), the CC50 was > 28.2 µM (inactive).

Regarding `O=C(NC(c1ccc(Cl)c(Cl)c1)c1nc(-c2ccccc2)no1)c1ccc(Cl)cc1` (stereo unspecified), the CC50 is > 28.2 µM (inactive). Take `O=C(NC(c1ccc(Cl)cc1)c1nc(-c2ccccc2)no1)c1cccc(Cl)c1` (stereo unspecified): the CC50 is > 28.2 µM (inactive). With `CCc1ccc(C(NC(=O)c2cccc(Cl)c2)c2nc(-c3ccccc3)no2)cc1` (stereo unspecified) the figure was > 28.2 µM (inactive). With `O=C(NC(c1ccc(Cl)cc1)c1nc(-c2ccccc2)no1)c1ccc(Cl)c(Br)c1` (stereo unspecified) the figure was > 28.2 µM (inactive); with `O=C(NC(c1cccc(Cl)c1)c1nc(-c2ccccc2)no1)c1cc(Cl)cc(Cl)c1` (stereo unspecified), > 28.2 µM (inactive).

(Values after PubChem BioAssay AID743436 (The Scripps Research Institute Molecular Screening Center, 2014).)
